Laboratory results as given in article PMC7445162, “De novo design of an intercellular signaling toolbox for multi-channel cell–cell communication and biological computation” (Nature Communications, 2020).
pEC50: −log10 of the molar value. Read-outs that look alike come from different tables or passages of the source. Each block holds one compound with its values, some of them ahead of it.

Experiments:
FdeR [1] = molecular target: T1, FdeR (Herbaspirillum seropedicae, UniProt D8J0W4); assay: GFP reporter dose-response in E. coli, flow cytometry; format: cell-based, Escherichia coli
T1 construct: gene nodD; expressed in E. coli DH5alpha receiver cells; GFP reporter under the cognate promoter
T1 sequence (D8J0W4 1-309): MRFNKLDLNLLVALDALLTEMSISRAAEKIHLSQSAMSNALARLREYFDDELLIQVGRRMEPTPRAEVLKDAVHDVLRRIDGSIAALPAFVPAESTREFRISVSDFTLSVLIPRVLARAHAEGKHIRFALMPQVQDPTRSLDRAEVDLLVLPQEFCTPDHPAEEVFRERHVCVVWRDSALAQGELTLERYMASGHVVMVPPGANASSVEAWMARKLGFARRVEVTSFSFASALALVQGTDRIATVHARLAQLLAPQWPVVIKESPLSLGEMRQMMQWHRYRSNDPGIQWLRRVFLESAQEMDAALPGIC

FdeR [2] = molecular target: T1, FdeR; assay: cell-based; set-up: species or system Escherichia coli DH5alpha; E. coli receiver cells, GFP reporter under aTF-responsive promoter, flow cytometry, dose-response with pure synthetic signal molecules; conditions: synthetic pure signal, replicate
Text: (§1) IV-HSL was chemically synthesized (Supplementary Fig. 21).

LuxR [3] = molecular target: T2, LuxR (Aliivibrio fischeri, UniProt P12746); assay: GFP reporter dose-response in E. coli, flow cytometry; format: cell-based, Escherichia coli; conditions: chemically pure signal molecule; M9 medium, 37 °C, 12 h; transcriptional reporter
T2 construct: expressed in E. coli DH5alpha receiver cells; GFP reporter under the Plux* promoter
T2 sequence (P12746 1-250): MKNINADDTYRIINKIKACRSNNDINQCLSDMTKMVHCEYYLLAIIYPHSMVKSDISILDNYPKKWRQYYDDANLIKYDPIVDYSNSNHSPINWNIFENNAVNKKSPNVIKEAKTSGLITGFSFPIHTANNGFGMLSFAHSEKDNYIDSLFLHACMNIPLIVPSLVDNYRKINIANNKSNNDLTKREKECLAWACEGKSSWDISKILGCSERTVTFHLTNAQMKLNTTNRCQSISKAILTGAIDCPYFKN

LuxR [4] = molecular target: T2, LuxR; assay: cell-based; set-up: species or system Escherichia coli DH5alpha; E. coli receiver cells, GFP reporter under aTF-responsive promoter, flow cytometry, dose-response with pure synthetic signal molecules; conditions: synthetic pure signal, replicate
Text: as §1

PhlF = molecular target: T3, PhlF (Pseudomonas protegens, UniProt Q4K422); assay: cell-based; set-up: species or system Escherichia coli DH5alpha; E. coli receiver cells, GFP reporter under aTF-responsive promoter, flow cytometry, dose-response with pure synthetic signal molecules; conditions: synthetic pure signal, replicate
T3 construct: expressed in E. coli DH5alpha receiver cells; PphlF-sfGFP reporter
T3 sequence (Q4K422 1-200): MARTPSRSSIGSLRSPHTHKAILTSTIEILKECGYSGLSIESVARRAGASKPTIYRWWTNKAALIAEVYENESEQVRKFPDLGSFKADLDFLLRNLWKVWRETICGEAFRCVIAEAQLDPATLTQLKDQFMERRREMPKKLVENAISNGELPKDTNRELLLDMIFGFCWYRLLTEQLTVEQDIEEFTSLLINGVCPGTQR
Text: as §1

pEC50 (FdeR [1]): 4.29
pEC50 (FdeR [2]; Synthetic [column B]): 4.92
pEC50 (FdeR [2]; Synthetic [column C]): 4.03
pEC50 (FdeR [2]; Synthetic [column D]): 4.33
Structure (SMILES): O=C1C[C@@H](c2ccc(O)cc2)Oc2cc(O)cc(O)c21 [NG, naringenin]

Structure (SMILES): CCCC(=O)CC(=O)N[C@H]1CCOC1=O [3OC6, 3-oxo-C6-HSL]
pEC50 (LuxR [3]): 7.70
pEC50 (LuxR [4]; Synthetic [column B]): 7.97
pEC50 (LuxR [4]; Synthetic [column C]): 7.48
pEC50 (LuxR [4]; Synthetic [column D]): 7.83

pEC50 (PhlF; Synthetic [column B]): 4.74
pEC50 (PhlF; Synthetic [column C]): 4.75
pEC50 (PhlF; Synthetic [column D]): 4.79
Structure (SMILES): CC(=O)c1c(O)cc(O)c(C(C)=O)c1O [DAPG, 2,4-diacetylphloroglucinol]
